The target of one series is T1, MMP-13 catalytic domain (Homo sapiens, UniProt P45452).
T1 construct: use the catalytic domain of the MMP-13 enzyme, namely matrix metalloproteinase-13 catalytic domain (“MMP-13CD”)
Put plainly: MMP-13 catalytic domain inhibition (thiopeptolide substrate hydrolysis). It is filed as biochemical. The following applies: read-out: MMP-13CD IC50. The text has this: The assays measure the amount by which a test compound reduces the hydrolysis of a thiopeptolide substrate catalyzed by a matrix metalloproteinase enzyme. […] One such assay is described below in Biological Method 1.
Some of the particular methods described below use the catalytic domain of the MMP-13 enzyme, namely matrix metalloproteinase-13 catalytic domain (“MMP-13CD”), rather than the corresponding full-length enzyme, MMP-13.
Thiopeptolide substrates show virtually no decomposition or hydrolysis at or below neutral pH in the absence of a matrix metalloproteinase enzyme. A typical thiopeptolide substrate commonly utilized for assays is Ac-Pro-Leu-Gly-thioester-Leu-Leu-Gly-OEt. […] Assays are carried out with and without matrix metalloproteinase inhibitor compounds, and the amount of hydrolysis is compared for a determination of inhibitory activity of the test compounds.

Here are results for 31 compounds from patent US20090029995A1, “HETERO BIARYL DERIVATIVES AS MATRIX METALLOPROTEINASE INHIBITORS” (WARNER-LAMBERT COMPANY, priority 2002, published 2009).

pIC50: −log10 of the molar value. Counter-ions that a name gives are not always drawn.

For orientation: melting point means the temperature of the solid-liquid transition. Usually pIC50 stands for −log10 of the IC50, conventionally taken in molar units. `COc1cccc(Cn2nnc(-c3cccc(C(=O)NCc4ccc(C(=O)O)cc4)c3)n2)c1` [Example 4, 4-({3-[2-(3-Methoxy-benzyl)-2H-tetrazol-5-yl]-benzoylamino}-methyl)-benzoic acid] had a melting point of 204 to 206 °C. The pIC50 on MMP-13 catalytic domain is 7.41.
The matching figures for `CS(=O)(=O)c1ccc(Cn2nnc(-c3cccc(C#CCc4ccc(F)cc4)c3)n2)cc1` [Example D5, 5-{3-[3-(4-Fluoro-phenyl)-prop-1-ynyl]-phenyl}-2-(4-methanesulfonyl-benzyl)-2H-tetrazole]: 101 to 104 °C and 6.82.
The matching figures for `CS(=O)(=O)c1ccc(Cn2nnc(-c3ccnc(C(=O)NCc4ccc(-n5cccn5)cc4)c3)n2)cc1` [Example F11, 4-[2-(4-Methanesulfonyl-benzyl)-2H-tetrazol-5-yl]-pyridine-2-carboxylic acid 4-pyrazol-1-yl-benzylamide]: 173 to 174 °C and 4.96.
The matching figures for `NS(=O)(=O)c1ccc(Cn2nnc(-c3cccc(C#CCc4ccccc4)c3)n2)cc1` [Example D4, 4-{5-[3-(3-Phenyl-prop-1-ynyl)-phenyl]-tetrazol-2-ylmethyl}-benzenesulfonamide]: 158 to 159 °C and 6.82.
Take `O=C(O)C1CCC(Cn2nnc(-c3cccc(C#CCc4ccc(F)cc4)c3)n2)CC1` (stereo not shown) [Example I2, 4-(5-{3-[3-(4-Fluoro-phenyl)-prop-1-ynyl]-phenyl}-tetrazol-2-ylmethyl)-cyclohexanecarboxylic acid]: the melting point fell in the range of 172 to 173 °C. Besides, at MMP-13 catalytic domain, the pIC50 is 8.92.
The matching figures for `O=C(O)c1ccc(Cn2nnc(-c3cncc(C#CCc4ccccc4)c3)n2)cc1` [Example H1, 4-{5-[5-(3-Phenyl-prop-1-ynyl)-pyridin-3-yl]-tetrazol-2-ylmethyl}-benzoic acid]: 211 to 213 °C and 8.00.
The matching figures for `O=C(O)c1ccc(Cn2nnc(-c3cccc(C#CCCc4ccccc4)c3)n2)cc1` [Example G2, 4-{5-[3-(4-Phenyl-but-1-ynyl)-phenyl]-tetrazol-2-ylmethyl}-benzoic acid]: 198 to 199 °C and 6.55.
The matching figures for `COc1ccc(CNC(=O)c2cc(-c3nnn(Cc4ccc(S(C)(=O)=O)cc4)n3)ccn2)cc1` [Example F6, 4-[2-(4-Methanesulfonyl-benzyl)-2H-tetrazol-5-yl]-pyridine-2-carboxylic acid 4-methoxy-benzylamide]: 145 to 146 °C and 7.62.
Consider `COc1ccc(Cn2nnc(-c3cccc(C(=O)NCc4nccs4)c3)n2)cc1` [Example 11, 3-[2-(4-Methoxy-benzyl)-2H-tetrazol-5-yl]-N-thiazol-2-ylmethyl-benzamide], for which the melting point fell in the range of 143 to 145 °C.
Consider `O=C(O)c1ccc(Cn2nnc(-c3cccc(C#Cc4ccccc4)c3)n2)cc1` [Example G1, 4-[5-(3-Phenylethynyl-phenyl)-tetrazol-2-ylmethyl]-benzoic acid], for which the melting point fell in the range of 226 to 228 °C. Moreover, the pIC50 at MMP-13 catalytic domain was 6.16.
The matching figures for `O=S(=O)(O)c1ccc(Cn2nnc(-c3cccc(C#CCc4ccc(F)cc4)c3)n2)cc1` [Example D1, 4-(5-{3-[3-(4-Fluoro-phenyl)-prop-1-ynyl]-phenyl}-tetrazol-2-ylmethyl)-benzenesulfonic acid]: 151 to 152 °C and 8.35.
For the compound `COc1ccc(Cn2nnc(-c3ccc(OC)c(C(=O)NCc4ccc(C(F)(F)F)cc4)c3)n2)cc1` [Example 37, 2-Methoxy-5-[2-(4-methoxy-benzyl)-2H-tetrazol-5-yl]-N-(4-trifluoromethyl-benzyl)-benzamide], the melting point is 188 to 190 °C.
Regarding `O=C(O)COc1ccc(Cn2nnc(-c3cccc(C#CCc4ccc(F)cc4)c3)n2)cc1` [Example D3, [4-(5-{3-[3-(4-Fluoro-phenyl)-prop-1-ynyl]-phenyl}-tetrazol-2-ylmethyl)-phenoxy]-acetic acid], the melting point was in the range of 158.2 to 159.6 °C. In addition, at MMP-13 catalytic domain, the pIC50 was 8.15.
With `COc1ccc(CNC(=O)c2cccc(-c3nnn(Cc4ccc(OC)cc4)n3)c2)cc1` [Example 26, N-(4-Methoxy-benzyl)-3-[2-(4-methoxy-benzyl)-2H-tetrazol-5-yl]-benzamide], the melting point lay within 159 to 160 °C.
In turn, `C/C=C/Cn1nnc(-c2cccc(C(=O)NCc3ccc(C(=O)OC)cc3)c2)n1` [Example 10, 4-{[3-(2-But-2-enyl-2H-tetrazol-5-yl)-benzoylamino]-methyl}benzoic acid methyl ester] yielded a melting point of 107 to 108 °C.
On to `O=C(O)Cc1ccc(Cn2nnc(-c3cccc(C#CCc4ccc(F)cc4)c3)n2)cc1` [Example I1, [4-(5-{3-[3-(4-Fluoro-phenyl)-prop-1-ynyl]-phenyl}-tetrazol-2-ylmethyl)-phenyl]-acetic acid], for which the melting point was 158 to 159 °C. Further, the pIC50 at MMP-13 catalytic domain is 8.59.
`COC(=O)c1ccc(CNC(=O)c2cccc(-c3nnn(Cc4nccs4)n3)c2)cc1` [Example 9] yielded a melting point of 158 to 160 °C.
`N#Cc1ccc(Cn2nnc(-c3ccnc(C(=O)NCc4ccncc4)c3)n2)cc1` [Example F5, 4-[2-(4-Cyano-benzyl)-2H-tetrazol-5-yl]-pyridine-2-carboxylic acid (pyridin-4-ylmethyl)-amide] had a melting point of 178 to 179 °C. Further, the pIC50 at MMP-13 catalytic domain was 7.62.
The matching figures for `CS(=O)(=O)c1ccc(Cn2nnc(-c3ccnc(C(=O)NCc4ccncc4)c3)n2)cc1` [Example F3, 4-[2-(4-Methanesulfonyl-benzyl)-2H-tetrazol-5-yl]-pyridine-2-carboxylic acid (pyridin-4-ylmethyl)-amide]: 143 to 144 °C and 7.66.
As to `CS(=O)(=O)c1ccc(Cn2nnc(-c3ccnc(C(=O)NCc4ccc(Oc5ccccc5)cc4)c3)n2)cc1` [Example F8, 4-[2-(4-Methanesulfonyl-benzyl)-2H-tetrazol-5-yl]-pyridine-2-carboxylic acid 4-phenoxy-benzylamide], the melting point lay in the range of 100 to 103 °C. For the same compound, the pIC50 on MMP-13 catalytic domain was 6.72.
The compound `COc1ccc(Cn2nnc(-c3cccc(C(=O)NCc4ccnc(OC)c4)c3)n2)cc1` [Example 16, 3-[2-(4-Methoxy-benzyl)-2H-tetrazol-5-yl]-N-(2-methoxy-pyridin-4-ylmethyl)-benzamide] showed a melting point of 166 to 169 °C.
Still for that read-out and setting: the value for `COc1ccc(Cn2nnc(-c3cccc(C(=O)NCc4ccc(CN5CCOCC5)cc4)c3)n2)cc1` [Example 12, 3-[2-(4-Methoxy-benzyl)-2H-tetrazol-5-yl]-N-(4-morpholin-4-ylmethyl-benzyl)-benzamide] was 161 to 162 °C.
Regarding `COc1ccc(Cn2nnc(-c3cccc(C(=O)NCc4ccc5nsnc5c4)c3)n2)cc1` [Example 15, N-2,1,3-Benzothiadiazol-5-ylmethyl-3-[2-(4-methoxy-benzyl)-2H-tetrazol-5-yl]-benzamide], the melting point lay within 207 to 208 °C.
On the same count and under the same terms, the value for `COC(=O)c1ccc(CNC(=O)c2cc(-c3nnn(Cc4ccc(OC)cc4)n3)ccc2OC)cc1` [Example 35] was 177 to 178 °C; that for `COc1ccc(Cn2nnc(-c3cccc(C(=O)NCc4ccncc4)c3)n2)cc1` [Example 18, 3-[2-(4-Methoxy-benzyl)-2H-tetrazol-5-yl]-N-pyridin-4-ylmethyl-benzamide] was 163 to 164 °C.
`CS(=O)(=O)c1ccc(Cn2nnc(-c3ccnc(C(=O)NCc4ccc(Cl)c(Cl)c4)c3)n2)cc1` [Example F10, 4-[2-(4-Methanesulfonyl-benzyl)-2H-tetrazol-5-yl]-pyridine-2-carboxylic acid 3,4-dichloro-benzylamide] gave a melting point of 150 to 152 °C. On MMP-13 catalytic domain, the pIC50 is 7.33.
The compound `COc1ccc(Cn2nnc(-c3cccc(C(=O)NCc4ccccc4)c3)n2)cc1` [Example 17, N-Benzyl-3-[2-(4-methoxy-benzyl)-2H-tetrazol-5-yl]-benzamide] registered a melting point of 169 to 170 °C.
Turning to `CS(=O)(=O)c1ccc(Cn2nnc(-c3ccnc(C(=O)NCc4cncnc4)c3)n2)cc1` [Example F4, 4-[2-(4-Methanesulfonyl-benzyl)-2H-tetrazol-5-yl]-pyridine-2-carboxylic acid (pyrimidin-5-ylmethyl)-amide], the melting point was in the range of 178 to 179 °C. In addition, the negative logarithm of the IC50 (pIC50) at MMP-13 catalytic domain is 6.68.
In the case of `COc1cc(CNC(=O)c2cccc(-c3nnn(Cc4ccc(C(=O)O)cc4)n3)c2)ccn1` (as salt: TFA) [Example 33, 4-(5-{3-[(2-Methoxy-pyridin-4-ylmethyl)-carbamoyl]-phenyl}-tetrazol-2-ylmethyl)-benzoic acid], the melting point is 228 °C (dec.).
Compound `CS(=O)(=O)c1ccc(Cn2nnc(-c3ccnc(C(=O)NCc4cccnc4)c3)n2)cc1` [Example F7, 4-[2-(4-Methanesulfonyl-benzyl)-2H-tetrazol-5-yl]-pyridine-2-carboxylic acid (pyridin-3-ylmethyl)-amide] registered a melting point of 174 to 175 °C. Moreover, the pIC50 on MMP-13 catalytic domain is 6.96.
For the compound `COc1ccc(Cn2nnc(-c3ccc(OC)c(C(=O)NCc4ccc(C(=O)O)cc4)c3)n2)cc1` [Example 36, 4-({2-Methoxy-5-[2-(4-methoxy-benzyl)-2H-tetrazol-5-yl]-benzoylamino}-methyl)-benzoic acid], the melting point lay within 207 to 209 °C.
